# Results reported in patent publication US7772216B2, “Protein kinase and phosphatase inhibitors and methods for designing them” (The Research Foundation of State University of New York, priority 2001, dated 2010).
# pKi: −log10 of the molar value. Like-named read-outs stand apart in the source and are kept apart here. Starred links: 1 amine or outer side, 2 acyl side, 3 side chain; linkers in the order of their positions; H or OH if unused. Non-standard residues stand in square brackets, D forms with d. Residues, ends and D or L forms follow the SMILES beside them. X6 = NS(=O)(=O)CC[C@H](N[*:1])C(=O)[*:2]; X2 = O=C([C@@H](CB(O)O)N[*:1])[*:2]; X3 = O=C([C@H](CCB(O)O)N[*:1])[*:2]; X1 = O=C([C@H](CB(O)O)N[*:1])[*:2]
# Experiments:
# pp60^c-src = pp60^c-src (Homo sapiens, UniProt P12931); experiment: Cellular Mimetic Src assay (RR-SRC phosphorylation); conditions: for inhibition at 500 µM: read-out: % Inhibition of 2 mM RR-src at Inhibitor Concentration (500 μM)
# PTP-1B = molecular target: T1, PTP-1B (Homo sapiens, UniProt P18031); experiment: PTP-1B inhibition; type: biochemical; conditions: % inhibition at 10 micromolar compound
# T1 sequence (P18031 1-435): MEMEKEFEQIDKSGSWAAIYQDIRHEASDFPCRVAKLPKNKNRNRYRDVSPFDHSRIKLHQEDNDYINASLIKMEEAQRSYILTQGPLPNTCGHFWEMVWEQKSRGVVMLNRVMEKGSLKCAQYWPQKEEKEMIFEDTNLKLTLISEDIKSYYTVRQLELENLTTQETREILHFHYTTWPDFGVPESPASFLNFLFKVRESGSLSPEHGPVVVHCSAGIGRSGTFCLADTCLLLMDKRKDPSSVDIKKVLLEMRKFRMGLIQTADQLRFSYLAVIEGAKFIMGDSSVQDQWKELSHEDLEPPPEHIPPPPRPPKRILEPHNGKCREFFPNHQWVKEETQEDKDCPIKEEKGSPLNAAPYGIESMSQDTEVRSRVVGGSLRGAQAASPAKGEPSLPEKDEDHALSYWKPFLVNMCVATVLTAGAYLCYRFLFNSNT
# Text: (§1) Blanks for a particular enzyme indicate that inhibition was not found.
# PKA [1] = molecular target: T2, PKA (Homo sapiens, UniProt P17612); experiment: Literature Mimetic PKA assay; type: biochemical; conditions: for IC50: Literature Mimetic; for pKi: Literature Mimetic (L) conditions, pentapeptide PKA inhibitors, read-out: Ki
# Text: (§2) The boronic acid inhibitors 21-24 have two Arg's in their sequence also and therefore will bind to the phosphocellulose paper in addition to Kemptamide (although not as consistently or completely due to one less positive charge). Consequently, when analyzed as inhibitors, the amount of phosphorylated Kemptamide produced was not only counted, but also the amount of phosphorylated inhibitor simultaneously produced (e.g. see 26 below). The net result is that distorted IC50 curves are obtained which show net “stimulation” at higher inhibitor concentrations in some cases. […] The underlying substrate behavior of these “inhibitors” makes an accurate measurement of their inhibition potency impossible with the current assay. However, it does appear from the data that homologating the boronic acid functionality out with only CH2 groups (homologations with boronic acid non-peptide Src inhibitors may also be carried out) decreases the binding affinity and ability to function as a substrate.
# PKA [2] = molecular target: T2, PKA; experiment: Cellular Mimetic PKA assay; type: biochemical; conditions: for % sti (stimulation) / inhibition at 2000 µM: 2000 μM inhibitor, C; for IC50: Cellular Mimetic, * very distorted IC50 curve, read-out: IC50 μM (cond. C, 0 h preincubation)
# Text: as §2
# Phosphorylated Kemptamide is SEQ. ID. No. 6. Phosphorylated 22 is SEQ. ID. No. 4. […] The graphs show their respective rates and levels of phosphorylation with the typical loss of initial velocity kinetics with time (due to substrate depletion and end product inhibition), analogous to a standard L-Ser substrate such as Kemptamide. The comparison of 21 to 22 shown was done in the same assay run, at identical boronic acid substrate concentrations, and with identical Cellular Mimetic assay solutions so that the cpm's could be directly compared. […] That the boronic acid moiety would be phosphorylated by PKA was surprising, but it is even more surprising that the phosphonic-boronic acid mixed anhydride produced (e.g. 26) was stable enough to survive the pH 7.2/37° C. assay incubation and then be isolated by binding to phosphocellulose paper after acid quenching of the reaction with 10% TCA and washing the phosphocellulose paper with 25 mM phosphoric acid (3×). An STN substructure search was run on mixed anhydrides of phosphoric and boronic acids and found only three references to experiments and theoretical calculations for the analogous putative (but not proven) anhydride formed from boric acid and phosphoric acid as a solid surface impregnated catalyst for the partial oxidation of ethane to acetaldehyde at 823° K. (Zhanpeisov & Otsuka, 1992, Otsuka et al., 1992, Murakami et al., 1990). However, this highly unusual anhydride has never before been synthesized free of a solid surface, isolated, or characterized. Thus, this is a novel enzymatic reaction and chemical entity with interesting possibilities for protein kinase inhibitor designs.
# EGFRTK = EGFRTK (Homo sapiens, UniProt P00533); experiment: EGFRTK inhibition; type: biochemical; conditions: % inhibition at 10 micromolar compound
# Text: as §1
# [3] = read-out: % Inhibition of 2 mM RR-src at Inhibitor Concentration (100 μM)
# [4] = IC50 μM (cond. L, 4 h preincubation), 4 h preincubation, * very distorted IC50 curve
# [5] = 0 h preincubation, read-out: IC50 μM (cond. L, 0 h preincubation)
# Sequence of pp60^c-src (P12931 whole entry): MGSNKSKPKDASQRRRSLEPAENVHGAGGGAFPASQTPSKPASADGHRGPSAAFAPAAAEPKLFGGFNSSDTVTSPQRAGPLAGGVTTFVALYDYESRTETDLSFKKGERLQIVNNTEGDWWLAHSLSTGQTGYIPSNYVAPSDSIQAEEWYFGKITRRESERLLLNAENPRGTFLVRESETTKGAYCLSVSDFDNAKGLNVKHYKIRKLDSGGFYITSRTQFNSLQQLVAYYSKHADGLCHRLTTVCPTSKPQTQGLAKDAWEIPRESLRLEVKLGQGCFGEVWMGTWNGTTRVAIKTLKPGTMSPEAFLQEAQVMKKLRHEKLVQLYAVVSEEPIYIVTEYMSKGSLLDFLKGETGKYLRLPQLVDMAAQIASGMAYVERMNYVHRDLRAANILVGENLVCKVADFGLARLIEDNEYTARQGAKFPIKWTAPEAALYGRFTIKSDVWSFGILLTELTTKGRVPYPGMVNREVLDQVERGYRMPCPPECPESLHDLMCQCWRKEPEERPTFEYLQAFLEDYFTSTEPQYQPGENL
# Sequence of EGFRTK (P00533 25-1210): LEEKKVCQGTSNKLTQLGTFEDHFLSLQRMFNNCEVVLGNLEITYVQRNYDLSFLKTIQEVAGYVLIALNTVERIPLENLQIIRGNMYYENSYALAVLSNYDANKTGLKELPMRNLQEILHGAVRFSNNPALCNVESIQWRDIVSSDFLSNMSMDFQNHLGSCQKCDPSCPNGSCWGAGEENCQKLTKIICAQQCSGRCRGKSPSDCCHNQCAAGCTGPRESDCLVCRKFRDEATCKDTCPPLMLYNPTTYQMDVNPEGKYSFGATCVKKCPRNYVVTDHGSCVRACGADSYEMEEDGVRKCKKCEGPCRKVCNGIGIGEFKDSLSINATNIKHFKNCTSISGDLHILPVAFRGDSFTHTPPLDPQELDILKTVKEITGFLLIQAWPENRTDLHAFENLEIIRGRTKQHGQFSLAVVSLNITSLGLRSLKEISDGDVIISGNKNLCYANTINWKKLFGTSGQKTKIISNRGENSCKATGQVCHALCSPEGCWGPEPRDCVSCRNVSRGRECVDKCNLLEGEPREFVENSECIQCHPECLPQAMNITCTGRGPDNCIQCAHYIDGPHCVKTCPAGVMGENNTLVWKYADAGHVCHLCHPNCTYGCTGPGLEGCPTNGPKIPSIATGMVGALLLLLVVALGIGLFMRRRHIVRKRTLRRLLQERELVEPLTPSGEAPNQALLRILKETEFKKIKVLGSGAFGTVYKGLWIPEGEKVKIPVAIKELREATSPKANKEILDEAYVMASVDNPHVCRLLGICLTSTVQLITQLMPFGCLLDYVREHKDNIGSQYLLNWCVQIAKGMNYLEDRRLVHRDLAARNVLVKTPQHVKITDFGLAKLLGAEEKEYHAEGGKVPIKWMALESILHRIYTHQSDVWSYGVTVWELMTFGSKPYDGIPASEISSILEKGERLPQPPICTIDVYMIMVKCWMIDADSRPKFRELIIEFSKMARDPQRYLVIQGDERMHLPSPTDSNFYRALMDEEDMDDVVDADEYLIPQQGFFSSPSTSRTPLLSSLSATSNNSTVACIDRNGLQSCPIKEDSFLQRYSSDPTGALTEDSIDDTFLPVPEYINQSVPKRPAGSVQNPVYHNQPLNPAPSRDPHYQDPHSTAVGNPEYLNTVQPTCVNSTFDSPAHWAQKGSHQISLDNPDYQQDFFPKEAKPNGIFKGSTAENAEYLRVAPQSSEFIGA
smiles,measurement,setting,value
"N=c1oc2c(O)cccc2cc1C(=O)Nc1cccc(O)c1 [Compound 50, reference compound]",% Inhibition of 2 mM RR-src at Inhibitor Concentration (100 μM),"pp60^c-src; Table V, inhibitor 100 μM",30 (100 μM) %
same,inhibition at 100 µM,pp60^c-src; [3],30%
O=C(NCc1ccccc1Cl)c1cc2cc(F)ccc2[nH]1 [Compound 1yy],PTP-1B @ 10 μm,PTP-1B,10%
CC[C@H](C)[C@H](NC(=O)[C@@H](CB(O)O)NC(=O)CNC(=O)[C@H](CCCNC(=N)N)NC(=O)[C@H](CCCNC(=N)N)NC(C)=O)C(N)=O [Compound 22] (Ac-RRG[X2]I-NH2),IC50,PKA [1]; [4],65 µM
same,IC50,PKA [1]; [5],81 µM
same,% sti (stimulation),PKA [2]; 4 h preincubation,71%
same,% sti (stimulation),"PKA [2]; 4 h preincubation, listed as drawing 33",*2000 μM 71% sti
same,IC50,PKA [2]; 0 h preincubation,1750 µM
CC[C@H](C)[C@H](NC(=O)[C@H](CB(O)O)NC(=O)CNC(=O)[C@H](CCCNC(=N)N)NC(=O)[C@H](CCCNC(=N)N)NC(C)=O)C(N)=O [Compound 21] (Ac-RRG[X1]I-NH2),inhibition at 500 µM,"PKA [1]; 500 μM inhibitor, L, 4 h preincubation",34%
same,pKi,PKA [1],~5.05
same,IC50,PKA [1]; [5],249 µM
same,% sti (stimulation),PKA [2]; 4 h preincubation,19%
same,% sti (stimulation),"PKA [2]; 4 h preincubation, listed as drawing 32",*2000 μM 19% sti
same,IC50,PKA [2]; 0 h preincubation,764 µM
same,inhibition at 100 µM,pp60^c-src; read-out: % Inhibition at 100 μM (std. dev.),54%
COc1cc(CNC(=O)c2cc3cc(F)ccc3[nH]2)cc(OC)c1 [Compound 1hhhh],PTP-1B @ 10 μm,PTP-1B,17%
O=C(NCc1ccccc1)c1cc2cc(F)ccc2[nH]1 [Compound 1bb],EGFRTK @ 10 μm,EGFRTK,19%
O=C(Nc1cccc(O)c1)c1ccc2cc(O)ccc2c1,inhibition at 100 µM,pp60^c-src; [3],45%
O=C(NCc1cc(Br)ccc1F)c1[nH]c2ccc(F)cc2c1-c1ccccc1 [Compound 2ll],EGFRTK @ 10 μm,EGFRTK,10%
CC[C@H](C)[C@H](NC(=O)[C@H](CCS(N)(=O)=O)NC(=O)CNC(=O)[C@H](CCCNC(=N)N)NC(=O)[C@H](CCCNC(=N)N)NC(C)=O)C(N)=O [Compound 7] (Ac-RRG[X6]I-NH2),pKi,PKA [1],3.52
O=C(NCc1cc(C(F)(F)F)ccc1F)c1cc2cc(F)ccc2[nH]1 [Compound 1aaa],PTP-1B @ 10 μm,PTP-1B,12%
O=C(NCc1cc(O)cc(OCc2ccccc2)c1)c1cc2cc(F)ccc2[nH]1 [Compound 1dddd],PTP-1B @ 10 μm,PTP-1B,16%
CCCOc1ccc(CNC(=O)c2cc3cc(F)ccc3[nH]2)cc1O [Compound 1nnnn],EGFRTK @ 10 μm,EGFRTK,17%
COC(=O)c1cc2ccc(O)cc2cc1O,inhibition at 100 µM,pp60^c-src; [3],47%
OB(O)c1cccc(-c2ccccc2)c1,inhibition at 100 µM,pp60^c-src; [3],14%
COC(=O)c1cc2ccc(B(O)O)cc2cn1,inhibition at 500 µM,pp60^c-src,13%
O=C(N[C@H](c1ccccc1)[C@H](O)c1ccccc1)c1cc2cc(F)ccc2[nH]1 [Compound 1cc],EGFRTK @ 10 μm,EGFRTK,19%
"Oc1cc(O)cc(/C=C/c2ccc(O)c(O)c2)c1 [Piceatannol, reference compound]",inhibition at 100 µM,"pp60^c-src; read-out: % Inhibition at 100 μM (std. dev.), Table IX, hydroxynaphthalene derivatives and published inhibitors",41%
COC(=O)c1cc2cc(O)ccc2[nH]1,inhibition at 500 µM,pp60^c-src,40%
CC[C@H](C)[C@H](NC(=O)[C@H](CCB(O)O)NC(=O)CNC(=O)[C@H](CCCNC(=N)N)NC(=O)[C@H](CCCNC(=N)N)NC(C)=O)C(N)=O [Compound 23] (Ac-RRG[X3]I-NH2),IC50,PKA [1]; [4],133 µM
same,IC50,PKA [1]; [5],398 µM
same,inhibition at 2000 µM,PKA [2]; 0 h preincubation,16%
same,% sti (stimulation),PKA [2]; 4 h preincubation,5%
same,inhibition at 2000 µM,PKA [2]; 4 h preincubation,5%
O=C(NCc1cc(OCc2ccccc2)cc(OCc2ccccc2)c1)c1cc2cc(F)ccc2[nH]1 [Compound 1iiii],EGFRTK @ 10 μm,EGFRTK,12%
O=C(NCCCCCCO)c1cc2cc(F)ccc2[nH]1 [Compound 1qqqq],EGFRTK @ 10 μm,EGFRTK,18%
O=C(NCc1cccc(I)c1)c1cc2cc(F)ccc2[nH]1 [Compound 1ff],EGFRTK @ 10 μm,EGFRTK,24%
